Assays:
[1] = test system: OCC2 (CD44-/MyD88- ovarian cancer cells); test: IC50 against chemosensitive ovarian cancer cells OCC2; format: cell-based, human; settings: read-out: IC50 (percentage of viable cells)
Description: CD44+/MyD88+ ovarian cancer stem cell clones (OCSC1 and OCSC2) and CD44−/MyD88− ovarian cancer cells (OCC1 and OCC2) were isolated from either tumor tissue or ascites obtained from patients diagnosed with stage III/IV serous ovarian cancer and propagated (Alvero, et al., 2009, Cell Cycle 8:158-166; Chefetz, et al., 2013, Cell Cycle 12:511-521). The epithelial nature of the isolated cells was determined by immunostaining for Ck18. Purity of the cultures based on CD44 expression by flow cytometry and chemoresistance were routinely tested. […]
(§1) Effect of each compound on cell morphology, growth, and viability was assessed using a kinetic live cell imaging system (Incucyte, Essen Bioscience). Proliferation was calculated as previously described (Alvero, et al., 2011, Mol. Cancer Ther. 10:1385-1393) using metrics from either confluence or fluorescent count from nuclear-restricted RFP or GFP. Cell death was quantified; similarly CELLTOX® Green Cytotoxicity Assay (Promega, Madison, Wis.). IC50 was calculated as described using GraphPad Prism (GraphPad Software Inc., LaJolla, Calif.).
Once the efficacy of TRX-E-002-1 against chemoresistant OCSC was established, its activity against two clones of chemosensitive ovarian cancer cells (OCC1 and OCC2) was determined.

[2] = test system: caspase-3/7; test: Caspase Glo assay, caspase-3/7; format: cell-based, human; settings: 0.245 μM; at 16 and 24 h post treatment
Description: Total protein was extracted and measured as described in Kamsteeg, et al., 2003, Oncogene 22:2611-2620. Activity of caspase 3/7 and caspase 9 was quantified using Caspase Glo assay (Promega).
The activities of caspase-3/7 and caspase-9 were assessed at 2, 4, 6, 8, 16, and 24 hours post-treatment with TRX-E-002-1.

[3] = test system: co-culture of RFP-labeled OCSC2 and GFP-labeled OCC2; test: In vitro co-culture model 50% RFP-OCSC2 / 50% GFP-OCC2; format: cell-based; settings: co-culture 50/50; TRX-E-002-1 0.12 μM, Cisplatin 20 μM
Description: CD44+/MyD88+ ovarian cancer stem cell clones (OCSC1 and OCSC2) and CD44−/MyD88− ovarian cancer cells (OCC1 and OCC2) were isolated from either tumor tissue or ascites obtained from patients diagnosed with stage III/IV serous ovarian cancer and propagated (Alvero, et al., 2009, Cell Cycle 8:158-166; Chefetz, et al., 2013, Cell Cycle 12:511-521). The epithelial nature of the isolated cells was determined by immunostaining for Ck18. Purity of the cultures based on CD44 expression by flow cytometry and chemoresistance were routinely tested. Stable expression of nuclear-restricted red fluorescent (in OCSCs) or green fluorescent proteins (in OCCs) was performed by transduction using NUCLIGHT® Red or Green Lentivirus Reagent (Essen Bioscience, Ann Arbor, Mich.). Spheroids were formed from OCSCs by culturing in ultra-low attachment multi-well plates (Corning, Inc., Corning, N.Y.).
as §1
Without wishing to be limited by any theory, response to chemotherapy may be modified by cross-talk among different cancer cell types within the tumor. Thus, to mimic the heterogeneity of ovarian tumors an in vitro co-culture model consisting of RFP-labeled chemoresistant OCSC2 and GFP-labeled chemosensitive OCC2 was used. The co-cultures, which are comprised of 50% RFP-OCSC2 and 50% GFP-OCC2 at time of treatment, were exposed to TRX-E-002-1, cisplatin, or the combination of both. Since GFP-OCC2 has faster doubling time than RFP-OCSC2, it overtook the control co-cultures by the end of the experiment and thus the control co-cultures are mainly comprised of GFP-OCC2 by the 24 h time-point (FIG. 2B).

[4] = test system: i.p. tumors of mCherry+OCSC1-F2 ovarian cancer cells; test: Recurrent disease xenograft, maintenance treatment after Paclitaxel; format: in vivo
Text: (§2) The Yale University Institutional Animal Care and Use Committee approved all in vivo studies described. Intra-peritoneal tumors were established in athymic nude mice using 4×10^6 mCherry+OCSC1-F2 ovarian cancer cells (Craveiro, et al., 2013, Cancer Med. 2:751-762). Injection of cancer cells is designated as day 0 and treatment commenced between day 3-5. Establishment of i.p. tumors was confirmed by live imaging (In-Vivo FX PRO, Bruker Corp., Billerica, Mass.) prior to treatment. TRX-E-002-1 was prepared in 20% Captisol or Dexsolve and administered daily at 50 mg/kg or 100 mg/kg. Paclitaxel was given at 12 mg/kg q3d and Cisplatin at 5 mg/kg weekly. All treatments were given i.p. Tumor growth was monitored q3d by live imaging and response to treatment was assessed using ROI area.
Although the standard of care for ovarian cancer patients (platinum plus taxane) is effective initially, most patients develop recurrent disease. Recurrence is the major cause of mortality in ovarian cancer patients, and thus approaches that can prevent recurrence are critical to improve patient survival. As described elsewhere herein, a unique advantage of the xenograft model is the recapitulation of recurrent disease that is typically observed in patients with ovarian cancer. […] Upon recurrence, tumors acquire resistance and become unresponsive to a second-round of Paclitaxel regimen, as observed in ovarian cancer patients. Thus, the model allows one to assess the value of novel compounds in preventing recurrence when given as maintenance treatment.
Thus mice were given Paclitaxel as initial treatment. […] After the 4th dose of Paclitaxel mice were re-randomized into the different maintenance groups. Here the maintenance protocol consisted of continued treatment with Paclitaxel, or maintenance with TRX-E-002-1 (100 mg/kg), or maintenance with Vehicle control.

[5] = test system: i.p. tumors of mCherry+OCSC1-F2 ovarian cancer cells; test: Intra-peritoneal ovarian cancer xenograft, primary disease dose response; format: in vivo, athymic nude mice
Description: as §2, with “Injection of cancer cells is designated as day 0 and treatment commenced between day 3-5.” left out
An intra-peritoneal (i.p.) recurrent ovarian cancer xenograft model established using ovarian cancer cells stably expressing mCherry fluorescence has been established. This allows the detection of i.p. tumors and real-time measurement of response during the course of treatment. This model recapitulates the clinical profile typically seen in patients with ovarian cancer and helps one answer three questions: (1) in vivo activity of TRX-E-002-1 against primary disease; (2) ability of TRX-E-002-1 given in combination with chemotherapy to prevent/delay recurrence; and (3) ability of TRX-E-002-1 given as maintenance after chemotherapy to prevent/delay recurrence.
To determine activity against primary disease as well as to determine the maximum tolerated dose (MTD), a dose response study was performed. […] Animals however recovered from the distension upon cessation of treatment. […] Thus, the MTD was established at daily 100 mg/kg i.p. and this dose was employed for the succeeding studies employing combination treatment.

Q: Which results are given for `COc1cc(C2COc3c(ccc(O)c3C)C2c2ccc(O)cc2)cc(OC)c1O` (single isomer, unassigned) [TRX-E-002-1]?
A: IC50 [1]: 27 nM; caspase-3/7 activity [2]: significant increase; number of GFP+ cells (GFP-OCC2) [3]: markedly reduced; number of mCherry+ cells (RFP-OCSC2) [3]: markedly reduced; tolerability of the maintenance schedule ([4]; TRX-E-002-1 100 mg/kg daily i.p. maintenance): no signs of disease or morbidity requiring euthanasia; tumor progression during maintenance treatment ([4]; after 4th dose of Paclitaxel, TRX-E-002-1 100 mg/kg daily i.p. or continued Paclitaxel): effectively retarded tumor proliferation; tumor burden (ROI area) versus group maintained with Paclitaxel ([4]; by day 35, TRX-E-002-1 100 mg/kg maintenance): significantly less; gross examination of residual disease ([4]; maintenance groups): microscopic metastasis; tumor weights at end point compared to control ([4]; maintenance groups): significantly reduced; tumor burden compared to vehicle control ([5]; 50 mg/kg daily i.p., starting at day 14): significant reduction; residual disease at completion of the treatment ([5]; 100 mg/kg daily i.p.): very little residual disease; p-c-Jun and total c-Jun in residual tumors ([5]; 100 mg/kg daily i.p., Western blot): upregulation; tumor burden compared to vehicle control ([5]; 100 mg/kg daily i.p., starting at day 10): significant reduction; tumor burden ([5]; 150 mg/kg i.p. three times weekly, by the 10th dose): significant decrease
